# In PubChem BioAssay AID651901 (NMMLSC, 2012):
# Calls of active or inactive are those of the source. No rule for the calls is given here.
# Molecular target: Lethal factor (Bacillus anthracis) (UniProt P15917)
# Experiment: Bacillus anthracis LF protease inhibitors, dose response, biochemical, multiplex microsphere (AID 651901)
# Settings: multiplex microsphere LF protease cleavage assay, flow cytometry
# Chain of Lethal factor (Bacillus anthracis) (P15917 whole entry, looked up): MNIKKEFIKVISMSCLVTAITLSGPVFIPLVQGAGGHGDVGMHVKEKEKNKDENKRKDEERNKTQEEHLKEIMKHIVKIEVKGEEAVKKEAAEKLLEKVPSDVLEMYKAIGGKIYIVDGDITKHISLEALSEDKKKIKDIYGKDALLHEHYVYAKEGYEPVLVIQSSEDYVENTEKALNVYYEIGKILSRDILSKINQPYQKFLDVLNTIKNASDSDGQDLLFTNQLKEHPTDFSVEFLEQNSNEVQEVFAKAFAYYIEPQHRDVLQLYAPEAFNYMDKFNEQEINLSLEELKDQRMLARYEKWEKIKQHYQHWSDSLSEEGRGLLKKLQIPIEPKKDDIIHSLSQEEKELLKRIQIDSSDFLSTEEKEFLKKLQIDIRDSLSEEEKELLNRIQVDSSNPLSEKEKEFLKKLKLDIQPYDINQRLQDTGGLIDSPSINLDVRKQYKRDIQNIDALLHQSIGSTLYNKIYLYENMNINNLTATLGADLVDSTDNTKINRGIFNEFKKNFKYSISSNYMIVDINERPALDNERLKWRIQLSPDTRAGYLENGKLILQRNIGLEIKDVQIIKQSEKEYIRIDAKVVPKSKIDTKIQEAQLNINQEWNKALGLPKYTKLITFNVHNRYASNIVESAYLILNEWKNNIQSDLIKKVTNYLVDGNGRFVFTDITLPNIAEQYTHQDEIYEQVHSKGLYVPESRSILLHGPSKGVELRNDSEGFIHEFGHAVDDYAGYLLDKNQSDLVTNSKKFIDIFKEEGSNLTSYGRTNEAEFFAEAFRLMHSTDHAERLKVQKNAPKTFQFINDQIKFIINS
row,SMILES,IC50
1,COc1ccc(N2N=C(c3ccccc3)CC2c2ccccc2)cc1 (centres undefined),> 20 µM (inactive)
2,c1ccc(-c2cc(-c3ccccc3)n(-c3ccccc3)n2)cc1,> 20 µM (inactive)
3,CSc1ccc(C2=NN(c3ccc(C(=O)N4CCOCC4)cc3)C(c3ccccc3)C2)cc1 (centres undefined),> 20 µM (inactive)
4,CNC(=O)c1ccc(N2N=C(c3ccccc3)CC2c2ccccc2)cc1 (centres undefined),> 20 µM (inactive)
5,O=C(c1ccc(N2N=C(c3ccccc3)CC2c2ccccc2)cc1)N1CCCCC1 (centres undefined),> 20 µM (inactive)
6,NS(=O)(=O)c1ccc(N2N=C(c3ccncc3)CC2c2ccccc2)cc1 (centres undefined),> 20 µM (inactive)
7,CS(=O)(=O)c1ccc(N2N=C(c3ccncc3)CC2c2ccccc2)cc1 (centres undefined),> 20 µM (inactive)
8,CC(C)NC(=O)c1ccc(N2N=C(c3ccccc3)CC2c2ccccc2)cc1 (centres undefined),> 20 µM (inactive)
9,CS(=O)(=O)c1ccc(N2N=C(c3cccnc3)CC2c2ccccc2)cc1 (centres undefined),> 20 µM (inactive)
10,CNC(=O)c1ccc(N2N=C(c3ccc(SC)cc3)CC2c2ccccc2)cc1 (centres undefined),> 20 µM (inactive)
11,CSc1ccc(C2=NN(c3ccc(C(=O)N4CCCCC4)cc3)C(c3ccccc3)C2)cc1 (centres undefined),> 20 µM (inactive)
12,c1ccc(C2CC(c3cccnc3)=NN2c2ccccc2)cc1 (centres undefined),> 20 µM (inactive)
13,c1ccc(C2CC(c3ccncc3)=NN2c2ccccc2)cc1 (centres undefined),> 20 µM (inactive)
14,NS(=O)(=O)c1ccc(N2N=C(c3cccnc3)CC2c2ccccc2)cc1 (centres undefined),> 20 µM (inactive)
15,O=C(c1ccc(N2N=C(c3ccccc3)CC2c2ccccc2)cc1)N1CCOCC1 (centres undefined),> 20 µM (inactive)
16,COc1ccc(N2N=C(c3ccncc3)CC2c2ccccc2)cc1 (centres undefined),> 20 µM (inactive)
17,CSc1ccc(C2=NN(c3ccc(S(N)(=O)=O)cc3)C(c3ccccc3)C2)cc1 (centres undefined),> 20 µM (inactive)
18,c1ccc(C2CC(c3ccccn3)=NN2c2ccccc2)cc1 (centres undefined),> 20 µM (inactive)
19,CSc1ccc(C2=NN(c3ccc(S(C)(=O)=O)cc3)C(c3ccccc3)C2)cc1 (centres undefined),> 20 µM (inactive)
20,COc1ccc(N2N=C(c3ccc(SC)cc3)CC2c2ccccc2)cc1 (centres undefined),> 20 µM (inactive)
21,c1ccc(C2=NN(c3ccccc3)C(c3ccccc3)C2)cc1 (centres undefined),> 20 µM (inactive)
22,NS(=O)(=O)c1ccc(N2N=C(c3ccccc3)CC2c2ccccc2)cc1 (centres undefined),> 20 µM (inactive)
23,O=[N+]([O-])c1ccc(N2N=C(c3ccccc3)CC2c2ccccc2)cc1 (centres undefined),> 20 µM (inactive)
24,CSc1ccc(C2=NN(c3ccc([N+](=O)[O-])cc3)C(c3ccccc3)C2)cc1 (centres undefined),0.1 µM
25,CSc1ccc(C2=NN(c3ccccc3)C(c3ccccc3)C2)cc1 (centres undefined),> 20 µM (inactive)
26,COc1ccc(N2N=C(c3cccnc3)CC2c2ccccc2)cc1 (centres undefined),> 20 µM (inactive)
27,COc1ccc(N2N=C(c3ccccn3)CC2c2ccccc2)cc1 (centres undefined),> 20 µM (inactive)
28,CS(=O)(=O)c1ccc(N2N=C(c3ccccc3)CC2c2ccccc2)cc1 (centres undefined),> 20 µM (inactive)
29,CC(C)CNC(=O)c1ccc(N2N=C(c3ccccc3)CC2c2ccccc2)cc1 (centres undefined),> 20 µM (inactive)
